# Literature values in US20240299291A1, “OPHTHALMIC PREPARATION ADMINISTERED BY EYE DROPS AND USED FOR PREVENTING AND TREATING DRY MACULAR DEGENERATION AND RETINAL LIGHT DAMAGE” (CHENGDU RUIMU BIOPHARMACEUTICALS CO., LTD., priority 2021, published 2024).
# Legend:
# [1] = tested on: age-related macular degeneration (AMD); details: oral metformin
# [2] = tested on: AMD; open-angle glaucoma
# [3] = tested on: retinal light damage; details: injection into the vitreous cavity of mice, up to 500 mg/kg/day, 7 days, before light damage
# [4] = tested on: AMPK (adenosine mono-phosphate activated protein kinase); details: mice
smiles,measurement,setting,value
CN(C)C(=N)N=C(N)N [metformin],Risk of AMD in patients with type 2 diabetes versus patients who did not take metformin,[1],significantly lower
same,Reduction of the incidence of open-angle glaucoma versus patients who did not take metformin,[2]; high-dose group (>1110 g metformin for 2 years),25%
same,Effect on the occurrence or development of AMD,[2]; oral metformin,may have therapeutic effect on the occurrence or development of AMD
same,Prevention of light damage,[3],almost completely prevent the light damage
same,AMPK activation in the retina of eyes,[4],locally activates AMPK
